{"source": "patent US20170290889A1", "about": "“METHODS AND COMPOSITIONS FOR TREATING DYSBIOSIS AND GASTROINTESTINAL AND INFLAMMATORY DISORDERS” (New York University, priority 2016, published 2017)", "molecules": {"B1": {"name": "rIL-4: recombinant IL-4 (Peprotech cat #214-14), type 2 cytokine, injected IP as complex with anti-IL4 (protein, UniProt P07750 21-140, looked up)", "Interleukin-4": "HIHGCDKNHLREIIGILNEVTGEGTPCTEMDVPNVLTATKNTTESELVCRASKVLRIFYLKHGKTPCLKKNSSVLMELQRLFRAFRCLDSSISCTMNESKSTSLKDFLESLKSIMQMDYS", "modifications": "complexed with anti-IL-4 antibody", "notes": "recombinant IL-4 (Peprotech cat #214-14), type 2 cytokine, injected IP as complex with anti-IL4"}, "B2": {"name": "rIL-13: recombinant IL-13 (Peprotech cat #210-13), type 2 cytokine, injected IP as complex with anti-IL13 (protein, UniProt P20109 19-131, looked up)", "Interleukin-13": "APGPVPRSVSLPLTLKELIEELSNITQDQTPLCNGSMVWSVDLAAGGFCVALDSLTNISNCNAIYRTQRILHGLCNRKAPTTVSSLPDTKIEVAHFITKLLSYTKQLFRHGPF", "modifications": "complexed with anti-IL-13 antibody", "notes": "recombinant IL-13 (Peprotech cat #210-13), type 2 cytokine, injected IP as complex with anti-IL13"}}, "key": {"[1]": {"tested_on": "T. trichiura", "test": "Albendazole deworming of Orang Asli (formalin-ether sedimentation, Kato Katz)", "assay_type": "in vivo, human"}, "[2]": {"tested_on": "Ascaris spp.", "test": "Albendazole deworming of Orang Asli (formalin-ether sedimentation, Kato Katz)", "assay_type": "in vivo, human"}, "[3]": {"tested_on": "Hookworm", "test": "Albendazole deworming of Orang Asli (formalin-ether sedimentation, Kato Katz)", "assay_type": "in vivo, human"}, "[4]": {"tested_on": "Bacteroides vulgatus", "test": "B. vulgatus colonization (stool, small intestinal tissue) in Nod2−/− mice, reported together with goblet cells", "assay_type": "in vivo", "details": "Nod2−/− mice injected IP with complex of 5 μg recombinant cytokine and 25 μg anti-cytokine antibody for 21 days"}, "[5]": {"tested_on": "Clostridiales", "test": "16S sequencing of mouse stool / small intestinal microbiota (LEfSe)", "assay_type": "in vivo", "details": "stool of uninfected Nod2−/− mice treated with recombinant cytokine, 16S / LEfSe"}, "[6]": {"tested_on": "M2 macrophage activation genes", "test": "RNA-seq gene expression analysis of small intestinal tissue (ileum) of Nod2−/− mice treated with rIL-13 or PBS", "assay_type": "in vivo", "details": "for Log2 Fold Change: Nod2−/− mice treated with recombinant IL-13 compared to PBS controls", "source_text": "Mice. Nod2−/−, Rag1−/−, Nod2−/−, and Stat6−/− mice on the C57BL/6 background were previously described and bred onsite in an MNV/Helicobacter-free specific pathogen free (SPF) facility at NYU School of Medicine (6, 23). Wild-type (WT) C57BL/6 mice were purchased from Jackson Laboratory and bred onsite to generate controls for experiments. Bone marrow chimeras were generated by lethally irradiating 8-week old female recipient mice (1100 CGy in two divided doses) followed by intravenous (i.v.) injection of 5×10^6 T cell-depleted bone marrow cells from donor female mice. For anti-CD4 treatment, mice were infected with T. muris and injected intra-peritoneally (IP) with 0.25 mg anti-CD4 (clone GK1.5) or anti-IgG2b isotype control (clone LTF-2) (BioXCell) every 3 days for 21 days and animals were sacrificed on day 21. For anti-IL13 treatment, mice were infected with H. polygyrus and injected IP with 0.15 mg anti-IL13 (clone 1316H) (eBioscience) or anti-IgG1 isotype control (clone 43414) (R&D Systems) starting on day 3 post-infection every 3 days for 12 days and animals were sacrificed on day 12. For recombinant IL-13 and IL-4 experiments, mice were injected IP with a complex of 25 μg of anti-IL13 (eBio1316H) and 5 μg of recombinant IL-13 (Peprotech cat #210-13), or a complex of 25 μg of anti-IL4 (BioXcel) and 5 μg of recombinant IL-4 (Peprotech cat #214-14) for 21 days and mice were sacrificed on day 21.\nGene Expression Analysis. RNA was isolated from one cm of small intestinal tissue (ileum) from Nod2^−/− mice treated with rIL-13 or PBS, or WT mice treated with PBS for normalization. An RNA library was prepared using the TruSeq stranded total RNA, with the RiboZero Gold kit and samples were sequenced on the Illumina HiSeq to generate single-end 50 bp reads. Raw sequencing reads were aligned to the mouse reference genome mm10 and the RefSeq reference transcriptome using TopHat (v2.0.12) with the alignment parameter—library-type fr-firststrand (28). Reads with mappability score (MAPQ) <30 were removed. The total number of filtered reads were counted for each gene using htseq-count with the parameters—stranded=reverse and—mode=union. Singleton genes (i.e. genes with total count <1) were filtered and the resulting count matrix was used for differential analysis using the DESeq2 workflow with default parameters (29, 30). Differential genes with rIL-13 treatment were identified at FDR 10%. Pathway analysis was performed using the DAVID platform as previously described (6)."}, "[7]": {"details": "T. trichiura, post-treatment n=64"}}, "data": [{"molecule": "CCCSc1ccc2nc(NC(=O)OC)[nH]c2c1", "note": "[albendazole]", "values": [{"measurement": "Cure rate (%)", "setting": "[1]; T. trichiura, 20 days, albendazole 3 doses, 400 mg/day", "result": 32.9, "unit": "%"}, {"measurement": "range of epg after treatment", "setting": "[1]; T. trichiura, after albendazole 3×400 mg", "result": "22-2,266 epg"}, {"measurement": "Light-intensity infections after treatment (%)", "setting": "[1]; [7]", "result": 70.3, "unit": "%"}, {"measurement": "Light-intensity infections after treatment, number", "setting": "[1]; [7]", "result": 45}, {"measurement": "Moderate-intensity infections after treatment (%)", "setting": "[1]; [7]", "result": 3.1, "unit": "%"}, {"measurement": "Moderate-intensity infections after treatment, number", "setting": "[1]; [7]", "result": 2}, {"measurement": "Total infections after treatment (%)", "setting": "[1]; [7]", "result": 73.4, "unit": "%"}, {"measurement": "Total infections after treatment, number", "setting": "[1]; [7]", "result": 47}, {"measurement": "Trichuris trichiura egg burden (eggs per gram of feces, Kato-Katz)", "setting": "[1]; post treatment with Albendazole (3 doses, 400 mg/day)", "result": "reduced"}, {"measurement": "Cure rate (%)", "setting": "[2]; 20 days", "result": 80.0, "unit": "%"}, {"measurement": "Number of infected persons cured after deworming", "setting": "[2]; 20 days", "result": 8}, {"measurement": "range of epg after treatment", "setting": "[2]; after albendazole 3×400 mg", "result": "22-4999 epg"}, {"measurement": "Light-intensity infections after treatment (%)", "setting": "[2]; post-treatment n=64", "result": 3.1, "unit": "%"}, {"measurement": "Light-intensity infections after treatment, number", "setting": "[2]; post-treatment n=64", "result": 2}, {"measurement": "Total infections after treatment (%)", "setting": "[2]; post-treatment n=64", "result": 3.1, "unit": "%"}, {"measurement": "Total infections after treatment, number", "setting": "[2]; post-treatment n=64", "result": 2}, {"measurement": "Cure rate (%)", "setting": "[3]; 20 days", "result": "96 .3%"}, {"measurement": "Number of infected persons cured after deworming", "setting": "[3]; 20 days", "result": 26}, {"measurement": "range of epg after treatment", "setting": "[3]; after albendazole 3×400 mg", "result": 22, "unit": "epg"}, {"measurement": "Light-intensity infections after treatment (%)", "setting": "[3]; post-treatment n=64", "result": 1.6, "unit": "%"}, {"measurement": "Light-intensity infections after treatment, number", "setting": "[3]; post-treatment n=64", "result": 1}, {"measurement": "Total infections after treatment (%)", "setting": "[3]; post-treatment n=64", "result": 1.6, "unit": "%"}, {"measurement": "Total infections after treatment, number", "setting": "[3]; post-treatment n=64", "result": 1}]}, {"molecule": "B1", "values": [{"measurement": "effect on B. vulgatus and goblet cells", "setting": "[4]", "result": "sufficient to reproduce the effect of helminth infection"}, {"measurement": "expansion of Clostridiales", "setting": "[5]", "result": "expansion of Clostridiales was also observed"}, {"measurement": "expansion of Clostridiales", "setting": "[5]; listed as IL-4", "result": "induces the expansion of bacteria from the class Clostridia in the GI tract"}]}, {"molecule": "B2", "values": [{"measurement": "Log2 Fold Change", "setting": "[6]; gene Arg1 (NM_007482)", "result": 1.468}, {"measurement": "Log2 Fold Change", "setting": "[6]; gene Ccl8 (NM_021443)", "result": 1.5}, {"measurement": "Log2 Fold Change", "setting": "[6]; gene Cd5l (NM_009690)", "result": 1.504}, {"measurement": "Log2 Fold Change", "setting": "[6]; gene Chi3l3 (NM_009892)", "result": 2.681}, {"measurement": "Log2 Fold Change", "setting": "[6]; gene Ear11 (NM_053113)", "result": 1.698}, {"measurement": "Log2 Fold Change", "setting": "[6]; gene Gm11428 (NM_001081957)", "result": 1.53}, {"measurement": "Log2 Fold Change", "setting": "[6]; gene Retnla (NM_020509)", "result": 1.625}, {"measurement": "Log2 Fold Change", "setting": "[6]; gene Saa3 (NM_011315)", "result": 1.846}, {"measurement": "Log2 Fold Change", "setting": "[6]; gene Serpina3n (NM_009252)", "result": 1.58}, {"measurement": "RNA-seq analysis of intestinal tissues: response", "setting": "[6]; rIL-13 treated Nod2−/− mice", "result": "wound healing response characterized by expression of M2 macrophage genes"}, {"measurement": "effect on B. vulgatus and goblet cells", "setting": "[4]", "result": "sufficient to reproduce the effect of helminth infection"}, {"measurement": "expansion of Clostridiales", "setting": "[5]", "result": "expansion of Clostridiales was also observed"}, {"measurement": "expansion of Clostridiales", "setting": "[5]; listed as IL-13", "result": "induces the expansion of bacteria from the class Clostridia in the GI tract"}]}]}
